Assay results from article PMC11649397, “The study of halogen effect on the reactivity of the serine-targeting covalent warheads” (Frontiers in Chemistry, 2024).
Values joined by “and” are separate entries in the source; they are usually repeats but may differ in a detail not shown here. Identical values can stand only once. “Also recorded” adds a separate entry of the source. Like-named read-outs stand apart in the source and are kept apart here.

Biological target: T1, hCES1A (Homo sapiens, UniProt P23141)
T1 sequence (P23141 18-567): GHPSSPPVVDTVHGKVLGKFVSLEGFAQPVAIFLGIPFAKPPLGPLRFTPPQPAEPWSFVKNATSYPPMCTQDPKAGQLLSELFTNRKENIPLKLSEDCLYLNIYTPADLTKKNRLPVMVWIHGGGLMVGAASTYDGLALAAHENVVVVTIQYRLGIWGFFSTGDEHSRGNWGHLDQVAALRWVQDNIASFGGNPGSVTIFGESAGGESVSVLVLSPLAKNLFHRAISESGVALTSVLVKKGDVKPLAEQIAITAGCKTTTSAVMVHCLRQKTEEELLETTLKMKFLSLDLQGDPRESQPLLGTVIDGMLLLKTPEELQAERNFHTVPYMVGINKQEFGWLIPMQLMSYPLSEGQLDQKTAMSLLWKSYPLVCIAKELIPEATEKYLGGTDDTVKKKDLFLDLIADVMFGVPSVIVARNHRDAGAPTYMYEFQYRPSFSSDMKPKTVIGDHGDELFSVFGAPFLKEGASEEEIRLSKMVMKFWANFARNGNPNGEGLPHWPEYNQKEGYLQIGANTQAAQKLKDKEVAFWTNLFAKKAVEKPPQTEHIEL
Assay: Inhibition assay on hCES1A (bioluminogenic substrate NLMe)
Type: biochemical
Conditions: for selective inhibitory activity on hCES1A: 10 μM, selectivity screening; for anti-hCES1A effect in screening of the covalent fragment library: high-throughput screening, Figure 1; for IC50: mean ± SD, n = 3
Experimental: In this study, a known bioluminogenic probe substrate NLMe was used for human carboxylesterase 1 (hCES1A) inhibition assays. ([Wang et al., 2020]). In brief, the incubation mixture (0.1 mL) consisted of 0.1 M buffer PBS (PH 6.5), hCES1A (0.1 μg/mL, final concentration) and each test compound. […] After 20 min incubation, equal volume of LDR was added to stop reaction. The luminescence signals were monitored in the microplate reader (SpectraMax iD3Molecular Devices, Austria). […]
The household library of covalent fragments including D and F was from Organic Chemistry […]
Fig. S1. Partial fragment molecules of a household library targeting to serine. […]
Inhibition assay on hCES1A
In this study, a known bioluminogenic probe substrate NLMe was used for human carboxylesterase 1 (hCES1A) inhibition assays. 2 In brief, the incubation mixture (0.1 mL) consisted of 0.1 M buffer PBS (PH 6.5), hCES1A (0.1 μg/mL, final concentration) and each test compound. […]
After 20 min incubation, equal volume of LDR was added to stop reaction.

| Structure (SMILES) | selective inhibitory activity on hCES1A | difference between IC50 values of hCES1A and hCES2A (hCES1A vs hCES2A) | anti-hCES1A effect in screening of the covalent fragment library | IC50 (3 min incubation, read-out: hCES1A IC50 3 min) [nM] | time-dependent inhibition against hCES1A (3 min vs 33 min incubation) | IC50 (33 min incubation, read-out: hCES1A IC50 33 min) | hCES1A IC50 Fold Increase (ratio of IC50 at 3 min to IC50 at 33 min) |
| --- | --- | --- | --- | --- | --- | --- | --- |
| O=S(=O)(F)c1ccc(Br)cc1 [D, 4-bromobenzenesulfonyl fluoride] | decent selective inhibitory activities | no statistically significant difference | potent anti-hCES1A effects; also recorded: strong and selective inhibition against hCES1A | – | – | – | – |
| O=C(c1ccccc1)C(F)(F)F [F, 2,2,2-trifluoroacetophenone] | decent selective inhibitory activities | – | potent anti-hCES1A effects; also recorded: strong and selective inhibition against hCES1A | 24.1 ± 1 | weak time-dependent inhibition | 11 nM and 11.1 nM | 2 and 2.2 |
